Test results taken from the NIST ThermoML archive (doi:10.1021/je049955d).
Numbers after ± are expanded uncertainties.

Key:
[1] = 298.15 K, Ring tensiometer
[2] = xn = mol fraction of the nth substance listed; settings: 298.15 K, Ring tensiometer

CCC(C)O (stereo unspecified) [butan-2-ol]
Settings	surface tension liquid-gas [mN/m]
[1]	23.3 ± 0.4

COC(=O)CC(C)=O [methyl 3-oxobutanoate] + O
[2]
Settings	surface tension liquid-gas [mN/m]
x1 = 0.000186	71.1 ± 2
x1 = 0.000411	70.4 ± 2
x1 = 0.000609	69.9 ± 2
x1 = 0.000793	69.3 ± 1.9
x1 = 0.001003	68.6 ± 1.9
x1 = 0.001822	66.6 ± 1.9
x1 = 0.003971	62.4 ± 1.8
x1 = 0.005842	60.2 ± 1.7
x1 = 0.008086	57.8 ± 1.6
x1 = 0.00996	56.1 ± 1.6
x1 = 0.01206	54.5 ± 1.5
x1 = 0.01404	53.2 ± 1.5

COC(=O)CC(C)=O [methyl 3-oxobutanoate]
Settings	surface tension liquid-gas [mN/m]
[1]	35.7 ± 0.5

CC(=O)CC(C)=O [2,4-pentanedione] + O
[2]
Settings	surface tension liquid-gas [mN/m]
x1 = 0.000205	70.7 ± 2
x1 = 0.000412	70.1 ± 2
x1 = 0.00049	69.9 ± 2
x1 = 0.000578	69.5 ± 1.9
x1 = 0.000783	69.1 ± 1.9
x1 = 0.001016	68.3 ± 1.9
x1 = 0.001976	65.5 ± 1.8
x1 = 0.004045	61.4 ± 1.7
x1 = 0.004973	59.8 ± 1.7
x1 = 0.006054	58.3 ± 1.6
x1 = 0.008089	55.6 ± 1.6
x1 = 0.0103	53.3 ± 1.5

CCC(C)O (stereo unspecified) [butan-2-ol] + O
[2]
Settings	surface tension liquid-gas [mN/m]
x1 = 0.000154	70.2 ± 2
x1 = 0.000211	69.7 ± 2
x1 = 0.000443	67.3 ± 1.9
x1 = 0.000718	64.8 ± 1.8
x1 = 0.001	62.6 ± 1.8
x1 = 0.001994	57.5 ± 1.6
x1 = 0.003914	50.9 ± 1.4
x1 = 0.005882	46.4 ± 1.3
x1 = 0.00799	43.1 ± 1.2
x1 = 0.009938	40.6 ± 1.2
x1 = 0.01199	38.5 ± 1.1
x1 = 0.01394	36.8 ± 1.1

OCCO [1,2-ethanediol]
Settings	surface tension liquid-gas [mN/m]
[1]	47.8 ± 0.6

OC1CCCC1 [cyclopentanol] + O
[2]
Settings	surface tension liquid-gas [mN/m]
x1 = 0.000201	70.8 ± 2
x1 = 0.000369	69.6 ± 2
x1 = 0.000525	68.5 ± 1.9
x1 = 0.000574	68 ± 2
x1 = 0.000713	67.3 ± 1.9
x1 = 0.000986	65.1 ± 1.8
x1 = 0.001816	60.2 ± 1.7
x1 = 0.002519	57.5 ± 1.6
x1 = 0.002728	56.3 ± 1.6
x1 = 0.003934	52.6 ± 1.5
x1 = 0.005255	49.6 ± 1.4
x1 = 0.005987	48.3 ± 1.4
x1 = 0.008154	44.8 ± 1.3
x1 = 0.01025	42.4 ± 1.2
x1 = 0.01189	40.6 ± 1.1
x1 = 0.01448	38.4 ± 1.1

O=C1CCCC1 [cyclopentanone]
Settings	surface tension liquid-gas [mN/m]
[1]	33 ± 0.5

CCC(C)=O [butanone] + O
[2]
Settings	surface tension liquid-gas [mN/m]
x1 = 5.71e-05	71.8 ± 2
x1 = 7.54e-05	71.7 ± 2
x1 = 8.96e-05	71.5 ± 2
x1 = 0.000112	71.3 ± 2
x1 = 0.000296	70 ± 2
x1 = 0.000522	68.9 ± 1.9
x1 = 0.000741	67.8 ± 1.9
x1 = 0.000855	67.3 ± 1.9
x1 = 0.000997	66.8 ± 1.9
x1 = 0.002056	63.1 ± 1.8
x1 = 0.00405	58.6 ± 1.6
x1 = 0.006112	55.1 ± 1.5
x1 = 0.008019	52.7 ± 1.5
x1 = 0.01022	50.4 ± 1.4
x1 = 0.01205	48.8 ± 1.4
x1 = 0.01413	47.4 ± 1.3

O [water]
Settings	surface tension liquid-gas [mN/m]
[1]	71.95 ± 2

CCOCCOC(C)=O [2-ethoxyethyl ethanoate]
Settings	surface tension liquid-gas [mN/m]
[1]	28.7 ± 0.5

CCC#N [propanenitrile] + O
[2]
Settings	surface tension liquid-gas [mN/m]
x1 = 0.000183	71.6 ± 2
x1 = 0.000368	71 ± 2
x1 = 0.000563	70.3 ± 2
x1 = 0.000784	69.5 ± 1.9
x1 = 0.000963	69.2 ± 1.9
x1 = 0.001988	66.6 ± 1.9
x1 = 0.003895	62.9 ± 1.8
x1 = 0.005968	59.5 ± 1.7
x1 = 0.008178	56.6 ± 1.6
x1 = 0.01015	54.2 ± 1.5
x1 = 0.012	52.4 ± 1.5
x1 = 0.01434	49.9 ± 1.4

CCCCO [butan-1-ol] + O
[2]
Settings	surface tension liquid-gas [mN/m]
x1 = 0.000138	69.4 ± 1.9
x1 = 0.000235	68.8 ± 1.9
x1 = 0.000292	68.1 ± 1.9
x1 = 0.000392	66.9 ± 1.9
x1 = 0.000596	64.4 ± 1.8
x1 = 0.000778	62.5 ± 1.8
x1 = 0.001004	60.4 ± 1.7
x1 = 0.001457	56.5 ± 1.6
x1 = 0.001997	53.9 ± 1.5
x1 = 0.002872	49.2 ± 1.4
x1 = 0.003931	45.8 ± 1.3
x1 = 0.006003	40.7 ± 1.2
x1 = 0.006847	38.3 ± 1.1
x1 = 0.008156	36.4 ± 1
x1 = 0.01013	33.7 ± 1
x1 = 0.01204	31.1 ± 0.9
x1 = 0.01288	29.9 ± 0.9
x1 = 0.01411	29.1 ± 0.8

CCC#N [propanenitrile]
Settings	surface tension liquid-gas [mN/m]
[1]	26.9 ± 0.4

CCC(C)=O [butanone]
Settings	surface tension liquid-gas [mN/m]
[1]	24.2 ± 0.4

CCOC(C)=O [ethyl acetate]
Settings	surface tension liquid-gas [mN/m]
[1]	23.7 ± 0.4

OCCO [1,2-ethanediol] + O
[2]
Settings	surface tension liquid-gas [mN/m]
x1 = 0.008251	70.8 ± 2
x1 = 0.01012	70.7 ± 2
x1 = 0.01185	70.4 ± 2
x1 = 0.01423	70.2 ± 1.9
x1 = 0.01585	69.7 ± 1.9
x1 = 0.01823	69.6 ± 1.9
x1 = 0.02	69.4 ± 1.9
x1 = 0.02198	69.2 ± 1.9
x1 = 0.02488	68.8 ± 1.9
x1 = 0.02992	68.2 ± 1.9
x1 = 0.03542	67.7 ± 1.9
x1 = 0.0401	67.3 ± 1.8
x1 = 0.04519	66.6 ± 1.8
x1 = 0.101	62.5 ± 1.6
x1 = 0.2	57.9 ± 1.4

O=C1CCCC1 [cyclopentanone] + O
[2]
Settings	surface tension liquid-gas [mN/m]
x1 = 0.000186	71.1 ± 2
x1 = 0.000367	70.3 ± 2
x1 = 0.000559	69.6 ± 2
x1 = 0.000768	68.9 ± 1.9
x1 = 0.000966	68.3 ± 1.9
x1 = 0.001362	67 ± 1.9
x1 = 0.002445	63.6 ± 1.8
x1 = 0.003863	61.1 ± 1.7
x1 = 0.006022	57.8 ± 1.6
x1 = 0.007908	55.5 ± 1.6
x1 = 0.009964	53.7 ± 1.5
x1 = 0.01215	52 ± 1.5
x1 = 0.01428	50.3 ± 1.4

CCOCCOC(C)=O [2-ethoxyethyl ethanoate] + O
[2]
Settings	surface tension liquid-gas [mN/m]
x1 = 0.000101	70 ± 2
x1 = 0.000178	68.9 ± 1.9
x1 = 0.00019	68.4 ± 1.9
x1 = 0.000221	67.9 ± 1.9
x1 = 0.000407	66 ± 1.9
x1 = 0.00046	65.6 ± 1.8
x1 = 0.000582	64.5 ± 1.8
x1 = 0.000777	63.5 ± 1.8
x1 = 0.000958	62.4 ± 1.8
x1 = 0.001352	60.3 ± 1.7
x1 = 0.003046	55.2 ± 1.6
x1 = 0.005086	51.2 ± 1.4
x1 = 0.007004	48.6 ± 1.4
x1 = 0.01091	44.7 ± 1.3
x1 = 0.013	43.2 ± 1.2
x1 = 0.01497	41.4 ± 1.2

CC(=O)CC(C)=O [2,4-pentanedione]
Settings	surface tension liquid-gas [mN/m]
[1]	30.9 ± 0.5

CCCCO [butan-1-ol]
Settings	surface tension liquid-gas [mN/m]
[1]	24.3 ± 0.4

OC1CCCC1 [cyclopentanol]
Settings	surface tension liquid-gas [mN/m]
[1]	32.8 ± 0.5

CCOC(C)=O [ethyl acetate] + O
[2]
Settings	surface tension liquid-gas [mN/m]
x1 = 0.000189	69.6 ± 2
x1 = 0.000351	67.7 ± 1.9
x1 = 0.000617	65.2 ± 1.8
x1 = 0.000819	63.7 ± 1.8
x1 = 0.000997	62.3 ± 1.8
x1 = 0.002074	57.3 ± 1.6
x1 = 0.003938	51.2 ± 1.4
x1 = 0.006035	46.7 ± 1.3
x1 = 0.008035	43.4 ± 1.2
x1 = 0.009946	40.5 ± 1.1
x1 = 0.01195	37.8 ± 1.1
x1 = 0.01401	35.2 ± 1
